Experimental data: patent US7884117B2, “Carbonylamino pyrrolopyrazoles, potent kinase inhibitors” (Pfizer Inc., priority 2005, dated 2011)

The compounds below were run against T1, PAK4 Kinase domain (PAK4 KD) (Homo sapiens, UniProt O96013) (assay: PAK4 kinase domain enzymatic assay (PK/LDH-coupled, Ki)). Settings: not given.
T1 construct: Cloning, expression, and purification of recombinant PAK4 Kinase domain (PAK4 KD); His tag (pET28a(+)/pET24a(+), Ni-NTA purification) (N, cleaved yes); GST (pGST4.5, glutathione column) (N, cleaved yes); made in house; host or cells: E. coli BL21(DE3)
T1 sequence (O96013 321-572 limits assumed): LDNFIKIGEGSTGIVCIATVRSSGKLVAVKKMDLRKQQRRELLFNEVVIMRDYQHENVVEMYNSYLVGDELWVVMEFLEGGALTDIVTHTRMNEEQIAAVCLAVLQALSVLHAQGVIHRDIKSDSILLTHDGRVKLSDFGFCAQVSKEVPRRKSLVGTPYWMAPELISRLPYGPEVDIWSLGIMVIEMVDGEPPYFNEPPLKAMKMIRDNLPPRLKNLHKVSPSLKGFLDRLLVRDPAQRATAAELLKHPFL
Assay type: biochemical
An inhibition at 1 µM of 42% was found for `CN(C)C[C@@H](NC(=O)N1Cc2c(NC(=O)c3cnccn3)n[nH]c2C1(C)C)c1ccccc1` [Example 111, (S)-N-(2-(dimethylamino)-1-phenylethyl)-6,6-dimethyl-3-(pyrazine-2-carboxamido)pyrrolo[3,4-c]pyrazole-5 (1H,4H,6H)-carboxamide] in this work. An inhibition at 1 µM of 66% was found for `CN(C)C[C@@H](NC(=O)N1Cc2c(NC(=O)C3COc4ccccc4O3)n[nH]c2C1(C)C)c1ccccc1` (stereo partly drawn) [Example 112, 3-(2,3-dihydrobenzo[b][1,4]dioxine-2-carboxamido)-N-((S)-2-(dimethylamino)-1-phenylethyl)-6,6-dimethylpyrrolo[3,4-c]pyrazole-5(1H,4H,6H)-carboxamide] in this work. An inhibition at 1 µM of 65% was found for `Cc1cc(C(=O)Nc2n[nH]c3c2CN(C(=O)NC2CC2c2ccccc2)C3(C)C)n(C)n1` (stereo not drawn) [Example 113, 3-(1,3-dimethyl-1H-pyrazole-5-carboxamido)-6,6-dimethyl-N-[trans-(2-phenylcyclopropyl)]pyrrolo[3,4-c]pyrazole-5(1H,4H,6H)-carboxamide] in this work. An inhibition at 1 µM of 70% was found for `CCc1ccc(C(=O)Nc2n[nH]c3c2CN(C(=O)NC2CC2c2ccccc2)C3(C)C)cc1` (stereo not drawn) [Example 114, 3-(4-ethylbenzamido)-6,6-dimethyl-N-[trans-(2-phenylcyclopropyl)]pyrrolo[3,4-c]pyrazole-5(1H,4H,6H)-carboxamide] in this work.

Same assay, conditions: PAK4 Kinase Domain
A Ki of 30.9 nM was found for `CN(C)C[C@@H](OC(=O)N1Cc2c(NC(=O)c3ccccn3)n[nH]c2C1(C)C)c1ccccc1` [Example 6, (1S)-2-(dimethylamino)-1-phenylethyl 6,6-dimethyl-3-[(pyridin-2-ylcarbonyl)amino]-4,6-dihydropyrrolo[3,4-c]pyrazole-5(1H)-carboxylate] in this work. A Ki of 98.3 nM was found for `CN(C)C[C@@H](NC(=O)N1Cc2c(NC(=O)c3ccccc3F)n[nH]c2C1(C)C)c1ccccc1` [Example 48, N-[(1S)-2-(dimethylamino)-1-phenylethyl]-3-[(2-fluorobenzoyl)amino]-6,6-dimethyl-4,6-dihydropyrrolo[3,4-c]pyrazole-5(1H)-carboxamide] in this work. A Ki of 33.8 nM was found for `CN(C)C[C@@H](NC(=O)N1Cc2c(NC(=O)c3ccc(C(F)(F)F)cc3)n[nH]c2C1(C)C)c1ccccc1` [Example 50, N-[(1S)-2-(dimethylamino)-1-phenylethyl]-6,6-dimethyl-3-{[4-(trifluoromethyl)benzoyl]amino}-4,6-dihydropyrrolo[3,4-c]pyrazole-5(1H)-carboxamide] in this work. A Ki of 11.3 nM was found for `CN(C)C[C@@H](NC(=O)N1Cc2c(NC(=O)c3cccs3)n[nH]c2C1(C)C)c1ccccc1` [Example 57, N-[(1S)-2-(dimethylamino)-1-phenylethyl]-6,6-dimethyl-3-[(2-thienylcarbonyl)amino]-4,6-dihydropyrrolo[3,4-c]pyrazole-5(1H)-carboxamide] in this work. A Ki of 226 nM was found for `CCC(=O)Nc1n[nH]c2c1CN(C(=O)O[C@H](CN(C)C)c1ccccc1)C2(C)C` [Example 118, (S)-2-(dimethylamino)-1-phenylethyl 6,6-dimethyl-3-propionamidopyrrolo[3,4-c]pyrazole-5(1H,4H,6H)-carboxylate] in this work. A Ki of 955 nM was found for `CN(C)[C@H](COC(=O)N1Cc2c(NC(=O)c3ccc(F)cc3)n[nH]c2C1(C)C)c1ccccc1` [Example 42, (S)-2-(dimethylamino)-2-phenylethyl 3-[(4-fluorobenzoyl)amino]-6,6-dimethyl-4,6-dihydropyrrolo[3,4-c]pyrazole-5(1H)-carboxylate] in this work. A Ki of 286 nM was found for `CN(C)C[C@@H](OC(=O)N1Cc2c(NC(=O)C3CCOCC3)n[nH]c2C1(C)C)c1ccccc1` [Example 91, (S)-2-(dimethylamino)-1-phenylethyl 6,6-dimethyl-3-(tetrahydro-2H-pyran-4-carboxamido)pyrrolo[3,4-c]pyrazole-5(1H,4H,6H)-carboxylate] in this work. A Ki of 564 nM was found for `C[C@@H](CN(C)C)OC(=O)N1Cc2c(NC(=O)c3ccc(F)cc3F)n[nH]c2C1(C)C` [Example 37, (1S)-2-(dimethylamino)-1-methylethyl 3-[(2,4-difluorobenzoyl)amino]-6,6-dimethyl-4,6-dihydropyrrolo[3,4-c]pyrazole-5(1H)-carboxylate] in this work. A Ki of 786 nM was found for `CN(C)[C@@H](COC(=O)N1Cc2c(NC(=O)c3ccc(F)cc3)n[nH]c2C1(C)C)c1ccccc1` [Example 41, (R)-2-(dimethylamino)-2-phenylethyl 3-[(4-fluorobenzoyl)amino]-6,6-dimethyl-4,6-dihydropyrrolo[3,4-c]pyrazole-5(1H)-carboxylate] in this work. A Ki of 220 nM was found for `CN(C)C[C@@H](OC(=O)N1Cc2c(NC(=O)c3ccccc3F)n[nH]c2C1(C)C)C1CCCCC1` [Example 33, (1S)-1-cyclohexyl-2-(dimethylamino)ethyl 3-[(2-fluorobenzoyl)amino]-6,6-dimethyl-4,6-dihydropyrrolo[3,4-c]pyrazole-5(1H)-carboxylate] in this work. A Ki of 178 nM was found for `CC[C@@H](NC(=O)N1Cc2c(NC(=O)c3ccccc3)n[nH]c2C1(C)C)c1ccccc1` [Example 63, 3-(benzoylamino)-6,6-dimethyl-N-[(1R)-1-phenylpropyl]-4,6-dihydropyrrolo[3,4-c]pyrazole-5(1H)-carboxamide] in this work. A Ki of 849 nM was found for `CC1(C)c2[nH]nc(NC(=O)C3CCC3)c2CN1C(=O)N[C@@H]1CCN(Cc2ccccc2)C1` [Example 65, N-[(3R)-1-benzylpyrrolidin-3-yl]-3-[(cyclobutylcarbonyl)amino]-6,6-dimethyl-4,6-dihydropyrrolo[3,4-c]pyrazole-5(1H)-carboxamide] in this work. A Ki of 96 nM was found for `CC1(C)c2[nH]nc(NC(=O)c3ccccc3)c2CN1C(=O)N[C@@H]1C[C@H]1c1ccccc1` (relative stereo) [Example 58, 3-(benzoylamino)-6,6-dimethyl-N-[trans-2-phenylcyclopropyl]-4,6-dihydropyrrolo[3,4-c]pyrazole-5(1H)-carboxamide] in this work. A Ki of 20.8 nM was found for `CC1(C)c2[nH]nc(NC(=O)c3ccc(F)cc3)c2CN1C(=O)N[C@H](CN)c1ccccc1` [Example 115, N-[(1S)-2-amino-1-phenylethyl]-3-[(4-fluorobenzoyl)amino]-6,6-dimethyl-4,6-dihydropyrrolo[3,4-c]pyrazole-5(1H)-carboxamide] in this work. A Ki of 121 nM was found for `CCc1cc(C(=O)Nc2n[nH]c3c2CN(C(=O)N[C@H](CN(C)C)c2ccccc2)C3(C)C)no1` [Example 105, (S)-N-(2-(dimethylamino)-1-phenyl)-3-(5-ethylisoxazole-3-carboxamido)-6,6-dimethylpyrrolo [3,4-c]pyrazole-5(1H,4H,6H)-carboxamide] in this work. A Ki of 81.7 nM was found for `Cc1ccc(Cl)c(C(=O)Nc2n[nH]c3c2CN(C(=O)N[C@H](CN(C)C)c2ccccc2)C3(C)C)c1F` [Example 110, (S)-3-(6-chloro-2-fluoro-3-methylbenzamido)-N-(2-(dimethylamino)-1-phenylethyl)-6,6-dimethylpyrrolo[3,4-c]pyrazole-5(1H,4H,6H)-carboxamide] in this work. A Ki of 556 nM was found for `CN(C)CC(CC(=O)N1Cc2c(NC(=O)c3ccc(F)cc3)n[nH]c2C1(C)C)c1ccccc1` (stereo not drawn) [Example 66, N-{5-[4-(dimethylamino)-3-phenylbutanoyl]-6,6-dimethyl-1,4,5,6-tetrahydropyrrolo[3,4-c]pyrazol-3-yl}-4-fluorobenzamide] in this work. A Ki of 468 nM was found for `CN(C)C[C@H](Cc1ccccc1)OC(=O)N1Cc2c(NC(=O)c3ccc(F)cc3)n[nH]c2C1(C)C` [Example 76, (1S)-1-benzyl-2-(dimethylamino)ethyl 3-[(4-fluorobenzoyl)amino]-6,6-dimethyl-4,6-dihydropyrrolo[3,4-c]pyrazole-5(1H)-carboxylate] in this work. A Ki of 512 nM was found for `CN(C)C[C@H](c1ccccc1)N(C)C(=O)N1Cc2c(NC(=O)c3ccccc3)n[nH]c2C1(C)C` [Example 103, 3-(benzoylamino)-N-[(1S)-2-(dimethylamino)-1-phenylethyl]-N,6,6-trimethyl-4,6-dihydropyrrolo[3,4-c]pyrazole-5(1H)-carboxamide] in this work. A Ki of 621 nM was found for `CC1(C)c2[nH]nc(NC(=O)c3ccc(F)cc3)c2CN1C(=O)NC(CN1CCOCC1)c1ccccc1` (stereo not drawn) [Example 102, 3-[(4-fluorobenzoyl)amino]-6,6-dimethyl-N-(2-morpholin-4-yl-1-phenylethyl)-4,6-dihydropyrrolo[3,4-c]pyrazole-5(1H)-carboxamide] in this work. A Ki of 356 nM was found for `COCC(=O)Nc1n[nH]c2c1CN(C(=O)O[C@H](CN(C)C)c1ccccc1)C2(C)C` [Example 14, (1S)-2-(dimethylamino)-1-phenylethyl 3-[(methoxyacetyl)amino]-6,6-dimethyl-4,6-dihydropyrrolo[3,4-c]pyrazole-5(1H)-carboxylate] in this work. A Ki of 284 nM was found for `CC(C)C[C@@H](CN(C)C)OC(=O)N1Cc2c(NC(=O)c3ccccc3F)n[nH]c2C1(C)C` [Example 78, (1S)-1-[(dimethylamino)methyl]-3-methylbutyl 3-[(2-fluorobenzoyl)amino]-6,6-dimethyl-4,6-dihydropyrrolo[3,4-c]pyrazole-5(1H)-carboxylate] in this work. A Ki of 223 nM was found for `CC1(C)c2[nH]nc(NC(=O)Cc3ccc(F)cc3)c2CN1C(=O)N[C@@H]1C[C@H]1c1ccccc1` (relative stereo) [Example 70, 3-{[(4-fluorophenyl)acetyl]amino}-6,6-dimethyl-N-[trans-2-phenylcyclopropyl]-4,6-dihydropyrrolo[3,4-c]pyrazole-5(1H)-carboxamide] in this work.

These compounds were tested against T2, PAK4 kinase activity in whole cells (TR-293-KDG, modified HEK 293) (Homo sapiens, UniProt O96013) (assay: PAK4 cellular assay: sandwich ELISA of PAK4-dependent phosphorylation of GEF-H1b in TR-293-KDG cells). Settings: 3-hour exposure.
T2 construct: engineered to overexpress both GEF-H1b and the kinase domain (KD) of PAK4; expressed in transfected cells; host or cells: TR-293-KDG (modified HEK 293, Trex system, Invitrogen)
T2 sequence (O96013 321-572 limits assumed): as above
Assay type: cell-based
Description: A sandwich ELISA method was used to measure the PAK4 kinase activity in whole cells. The level of PAK4-dependent phosphorylation of GEF-H1b can be determined by monitoring the binding of a phosphospecific antibody to GEF-H1b. […] The KD of PAK4 is inducible in this cell line by tetracycline (Trex system, Invitrogen). […] To establish a phosphorylation event on GEF-HL, cells are induced with doxycycline to express the PAK4 KD. […] Candidate substance effect is measured as the ability to block this phosphorylation event.
ELISA plate was prepared by pre-coating the plates with a capture antibody (α-HA-tag mouse monoclonal antibody), blocked with BSA, and washed in 0.1% tween 20 in tris-buffered saline (TBST). […] Cells were then lysed with a modified RIPA buffer supplemented with protease inhibitors. […] Between all subsequent steps plates were washed 4 times with TBST. Detection antibody (recognizing the phospho-specific eptitope on GEF-H1b) was added for 1 hour, followed by addition of an enzyme linked goat α-rabbit secondary antibody for 45 minutes. […] EC50 values were calculated by sigmoid curve fitting using a four-parameter analysis.
An EC50 of 27.9 nM was found for `CN(C)C[C@@H](OC(=O)N1Cc2c(NC(=O)c3ccccn3)n[nH]c2C1(C)C)c1ccccc1` [Example 6, (1S)-2-(dimethylamino)-1-phenylethyl 6,6-dimethyl-3-[(pyridin-2-ylcarbonyl)amino]-4,6-dihydropyrrolo[3,4-c]pyrazole-5(1H)-carboxylate] in this work. An EC50 of 36.4 nM was found for `CN(C)C[C@@H](NC(=O)N1Cc2c(NC(=O)c3ccccc3F)n[nH]c2C1(C)C)c1ccccc1` [Example 48, N-[(1S)-2-(dimethylamino)-1-phenylethyl]-3-[(2-fluorobenzoyl)amino]-6,6-dimethyl-4,6-dihydropyrrolo[3,4-c]pyrazole-5(1H)-carboxamide] in this work. An EC50 of 335 nM was found for `CN(C)C[C@@H](NC(=O)N1Cc2c(NC(=O)c3ccc(C(F)(F)F)cc3)n[nH]c2C1(C)C)c1ccccc1` [Example 50, N-[(1S)-2-(dimethylamino)-1-phenylethyl]-6,6-dimethyl-3-{[4-(trifluoromethyl)benzoyl]amino}-4,6-dihydropyrrolo[3,4-c]pyrazole-5(1H)-carboxamide] in this work. An EC50 of 16 nM was found for `CN(C)C[C@@H](NC(=O)N1Cc2c(NC(=O)c3cccs3)n[nH]c2C1(C)C)c1ccccc1` [Example 57, N-[(1S)-2-(dimethylamino)-1-phenylethyl]-6,6-dimethyl-3-[(2-thienylcarbonyl)amino]-4,6-dihydropyrrolo[3,4-c]pyrazole-5(1H)-carboxamide] in this work. An EC50 of 396 nM was found for `CN(C)CC(OC(=O)N1Cc2c(n[nH]c2NC(=O)C2CCCO2)C1(C)C)c1cccc(F)c1` (single isomer, unassigned) [Example 84B] in this work. An EC50 of 560 nM was found for `CN(C)CC(OC(=O)N1Cc2c(n[nH]c2NC(=O)C2CCCO2)C1(C)C)c1cccc(F)c1` (single isomer, unassigned) [Example 83A] in this work.
